US20250221963A1 (GH RESEARCH IRELAND LIMITED, priority 2022, published 2025)

Key:
[1] = tested on: Escherichia coli WP2 uvrA pKM101; test: Bacterial mutation test, Escherichia coli; type: cell-based; conditions: up to 5000 μg/plate, absence and presence of S-9
Procedure: (§1) These conditions included treatments at concentrations up to 5000 μg/plate (the maximum recommended concentration according to current regulatory guidelines), in the absence and in the presence of a rat liver metabolic activation system (S-9).

[2] = tested on: patients with treatment-resistant major depressive disorder (TRD); test: Phase 1/2 clinical trial of inhaled 5-MeO-DMT in TRD; conditions: for Patients with at least one ADR: Part A
Procedure: Patients were assigned to different groups. In the context of the present invention, the group who received a single, 12 mg dose and the group who underwent an intra-day individualized dosing regimen (IDR) that allowed for multiple, escalating doses (6 mg, 12 mg and 18 mg) within a single day, driven by the intensity of the patient-reported psychedelic experience are of interest.
The data gathered include the assessment of the treated patients against several scales including the Montgomery Åsberg Depression Rating Scale (MADRS) and the Brief Psychiatric Rating Scale (BPRS).
This trial was designed in two parts. Part A was an open-label, single-arm, single-dose Phase 1 trial with two dose levels (12 mg (n=4) and 18 mg (n=4)). […] The primary endpoint of Part B was to assess the effects on the severity of depression, as assessed by the proportion of patients in remission on day seven after dosing, defined as a MADRS total score of less than or equal to 10.

[3] = tested on: Salmonella typhimurium TA98, TA100, TA1535 and TA1537; test: Bacterial mutation test, Salmonella typhimurium; type: cell-based; conditions: up to 5000 μg/plate, absence and presence of S-9
Procedure: as §1

[4] = 12 mg n=4, 2 hours, baseline 16

COc1ccc2[nH]cc(CCN(C)C)c2c1 [5-MeO-DMT]
Induction of mutation [1]: did not induce mutation
MADRS Concentration Difficulties improvement ([2]; 12 mg n=4, 2 hours): 9 points
MADRS Inability to Feel improvement ([2]; 12 mg n=4, 2 hours): 7 points
MADRS Inner Tension improvement ([2]; 12 mg n=4, 2 hours): 11 points
MADRS Lassitude improvement ([2]; 12 mg n=4, 2 hours): 6 points
MADRS Pessimistic Thoughts improvement ([2]; 12 mg n=4, 2 hours): 8 points
MADRS Pessimistic Thoughts percentage improvement ([2]; 12 mg n=4, 2 hours): 50.00%
MADRS Suicidal Thoughts improvement ([2]; 12 mg n=4, 2 hours): 5 points
MADRS Suicidal Thoughts aggregated score ([2]; 12 mg n=4, 2 hours, baseline 8): 3
MADRS Inner Tension aggregated score ([2]; 12 mg n=4, 2 hours, baseline 13): 2
MADRS Concentration Difficulties aggregated score [2, 4]: 7
MADRS Inability to Feel aggregated score [2, 4]: 9
MADRS Lassitude aggregated score [2, 4]: 10
MADRS Pessimistic Thoughts aggregated score [2, 4]: 8
BPRS Anxiety improvement ([2]; 12 mg n=4, 3 hours): 14 points
BPRS Anxiety percentage improvement ([2]; 12 mg n=4, 3 hours): 56.00%
BPRS Blunted Affect improvement ([2]; 12 mg n=4, 3 hours): 3 points
BPRS Emotional Withdrawal improvement ([2]; 12 mg n=4, 3 hours): 2 points
BPRS Guilt Feelings improvement ([2]; 12 mg n=4, 3 hours): 9 points
BPRS Guilt Feelings percentage improvement ([2]; 12 mg n=4, 3 hours): 50.00%
BPRS Tension improvement ([2]; 12 mg n=4, 3 hours): 5 points
BPRS Blunted Affect aggregated score ([2]; 12 mg n=4, 3 hours, baseline 11): 8
BPRS Emotional Withdrawal aggregated score ([2]; 12 mg n=4, 3 hours, baseline 13): 11
BPRS Tension aggregated score ([2]; 12 mg n=4, 3 hours, baseline 14): 9
BPRS Guilt Feelings aggregated score ([2]; 12 mg n=4, 3 hours, baseline 18): 9
BPRS Anxiety aggregated score ([2]; 12 mg n=4, 3 hours, baseline 25): 11
Patients maintaining remission ([2]; Day 7): 7/8
MADRS Concentration Difficulties improvement ([2]; IDR n=8, 2 hours): 19 points
MADRS Inability to Feel improvement ([2]; IDR n=8, 2 hours): 24 points
MADRS Inner Tension improvement ([2]; IDR n=8, 2 hours): 15 points
MADRS Lassitude improvement ([2]; IDR n=8, 2 hours): 17 points
MADRS Pessimistic Thoughts improvement ([2]; IDR n=8, 2 hours): 21 points
MADRS Pessimistic Thoughts percentage improvement ([2]; IDR n=8, 2 hours): 75.00%
MADRS Suicidal Thoughts improvement ([2]; IDR n=8, 2 hours): 8 points
MADRS Suicidal Thoughts aggregated score ([2]; IDR n=8, 2 hours, baseline 11): 3
MADRS Inner Tension aggregated score ([2]; IDR n=8, 2 hours, baseline 26): 11
MADRS Lassitude aggregated score ([2]; IDR n=8, 2 hours, baseline 27): 10
MADRS Pessimistic Thoughts aggregated score ([2]; IDR n=8, 2 hours, baseline 28): 7
MADRS Concentration Difficulties aggregated score ([2]; IDR n=8, 2 hours, baseline 30): 11
MADRS Inability to Feel aggregated score ([2]; IDR n=8, 2 hours, baseline 36): 12
BPRS Anxiety improvement ([2]; IDR n=8, 3 hours): 18 points
BPRS Blunted Affect improvement ([2]; IDR n=8, 3 hours): 4 points
BPRS Emotional Withdrawal improvement ([2]; IDR n=8, 3 hours): 5 points
BPRS Guilt Feelings improvement ([2]; IDR n=8, 3 hours): 20 points
BPRS Tension improvement ([2]; IDR n=8, 3 hours): 5 points
BPRS Emotional Withdrawal aggregated score ([2]; IDR n=8, 3 hours, baseline 13): 8
BPRS Blunted Affect aggregated score ([2]; IDR n=8, 3 hours, baseline 15): 11
BPRS Tension aggregated score ([2]; IDR n=8, 3 hours, baseline 16): 11
BPRS Guilt Feelings aggregated score ([2]; IDR n=8, 3 hours, baseline 34): 14
BPRS Anxiety aggregated score ([2]; IDR n=8, 3 hours, baseline 37): 19
Safety laboratory analyses, vital signs, psychiatric safety assessments, cognitive function ([2]; Part A and Part B): No clinically significant changes
Patients with at least one ADR ([2]; 12 mg): 3 of 4
Patients with at least one ADR ([2]; 18 mg): 3 of 4
Patients with MADRS remission ([2]; Part B, IDR n=8, day seven): 87.5%
Mean MADRS change from baseline, percent ([2]; Part B, IDR, day seven): 76%
Patients achieving remission ([2]; day 1): 8/8
Patients achieving remission ([2]; within 2 h after dosing): 5/8
Induction of mutation [3]: did not induce mutation
